Results reported in patent US11052153B2, “Highly branched alpha-D-glucans” (Purdue Research Foundation, priority 2012, dated 2021).

Assays:
physchem = format: physicochemical; conditions: 22 °C, pH 6.6, aqueous buffer, kinetic from dmso stock
Salmonella typhimurium = assay: Minimum inhibitory concentration of thymol in BHI broth (turbidity); format: cell-based; conditions: Salmonella enterica, 37° C., 24 hours, 1.0% (v/v) inoculum
Description: The mixture was subjected to high speed homogenization. After homogenization, the dispersion was centrifuged to collect aqueous liquid. The concentration of thymol in this phytoglycogen-thymol liquid stock was determined to be about 400 μg/mL. As reference, a thymol-alone stock of 400 μg/mL in sodium acetate buffer (50 mM, pH 5.5) was prepared by adding thymol in the buffer and vortex. The phytoglycogen-thymol stock and thymol-alone stock were added to Brain Heart Infusion (BHI) broth to make the thymol concentrations of 12.5, 25, 50, 80, 100, and 125 μg/mL. To the glass tubes containing these broth liquids, Salmonella typhimurium culture (about 10^9 CFU/mL) was inoculated at a 1.0% (v/v) level, and all liquids were incubated at 37° C. for 24 hours. Thereafter, the tubes were photographed for comparing the turbidity.

[1] = Curcumin solubility in pH 6.5 10 mM NaAc buffer as affected by carriers; format: physicochemical; conditions: carrier 10 mg/mL; for Curcumin Solubility: excess curcumin homogenized
Description: Thereafter, 1.0 mL aliquot was drawn from each mixture and subjected to centrifugation. The supernatant was added to ethanol to extract curcumin.

| Compound | solubility at 2 h (physchem) [µg/mL] | MIC (Salmonella typhimurium) [µg/mL] | Carrier/curcumin ratio [1] | Curcumin Solubility [1] [µg/mL] |
| --- | --- | --- | --- | --- |
| COc1cc(/C=C/C(=O)CC(=O)/C=C/c2ccc(O)c(OC)c2)ccc1O [curcumin] | < 0.3 | – | – | – |
| Cc1ccc(C(C)C)c(O)c1 [thymol-alone, thymol] | – | > 125 | – | – |
| OC[C@H]1O[C@@H]2O[C@H]3[C@H](O)[C@@H](O)[C@@H](O[C@H]4[C@H](O)[C@@H](O)[C@@H](O[C@H]5[C@H](O)[C@@H](O)[C@@H](O[C@H]6[C@H](O)[C@@H](O)[C@@H](O[C@H]7[C@H](O)[C@@H](O)[C@@H](O[C@H]8[C@H](O)[C@@H](O)[C@@H](O[C@H]1[C@H](O)[C@H]2O)O[C@@H]8CO)O[C@@H]7CO)O[C@@H]6CO)O[C@@H]5CO)O[C@@H]4CO)O[C@@H]3CO [βCD, β-cyclodextrin] | – | – | 222/1 | 45.1 |
| hydroxypropyl β-cyclodextrin [HPβCD] | – | – | 91/1 | 110 |
